Test results taken from patent US20140309229A1, “METHODS FOR SELECTING AND TREATING CANCER IN PATIENTS WITH IGF-1R/IR INHIBITORS” (priority 2011, published 2014).

Tests used:
[1] = tested on: NCI-H716; experiment: MTS proliferation assay; type: cell-based, human
Method: (§1) Cell lines and in vitro cytotoxicity assay. Cells were maintained at 37° C. under standard cell culture conditions. Cells were plated at an optimized density for each cell line per well in 96-well microtiter FALCON® plates, incubated overnight, and then exposed to a serial dilution of drug. […] The results were expressed as an IC50, which is the drug concentration required to inhibit cell proliferation to 50% of that of untreated control cells. The mean IC50 and standard deviation (SD) from multiple tests for each cell line were calculated.
(§2) In vitro Cellular Proliferation Assays.

[2] = tested on: SNU-61; experiment: MTS proliferation assay; type: cell-based, human
Method: as §1, §2

[3] = tested on: RKO-RM13; experiment: MTS proliferation assay; type: cell-based, human
Method: as §1, §2

[4] = tested on: CaR-1; experiment: MTS proliferation assay; type: cell-based, human
Method: as §1, §2

[5] = tested on: COLO320DM; experiment: MTS proliferation assay; type: cell-based, human
Method: as §1, §2

[6] = tested on: pIGF-1R/pIR and pAKT
Method: Cells were serum-starved overnight, then either stimulated with 50 ng/ml IGF-1, IGF-2 or insulin for 10 minutes, or unstimulated. Cell lysates were subjected to MSD for measuring both total and phosphorylated IGF-1R and AKT. The phospho-protein values were normalized to the corresponding total protein levels (e.g., pIGF-1R/IGF-1R). The ligand-stimulated activation of IGF-1R or AKT is presented as the ratio of the pIGF-1R/IGF-1R or pAKT/AKT value in IGF-1, IGF-2 or insulin-stimulated cells vs. the value in the non-stimulated cells. […] 20 ug of total protein from cell lysates were subjected to Western blot analysis.
Western Blots and MesoScale Discovery (MSD) Multiplex Plate Based Assays. […] Antibodies for pIGF-IR/pIR, pAkt, p-p44/42 MAPK and IRS2 for Western blot and MSD were purchased from Cell Signaling Technology and Santa Cruz Biotechnology (see figure legends) except for β-ACTIN® sourced from Millipore. Protein signals from Western blots were visualized using ODYSSEY® Imaging (Li-Cor Biosciences). Measurement of phospho- and total IGF-1R, IR, IRS-1, Akt and MAPK was also determined by commercially available multiplex plate based assays (MSD, Gaithersburg Md.). […] Measurement of IRS2 was determined using customized assays utilizing MSD technology.
Cell lysates were subsequently subjected to Western blot analysis and evaluated for pIGF-1R/pIR and pAKT.

C[C@@]1(C(=O)Nc2ccc(F)nc2)CCCN1c1nc(Nc2cc(C3CC3)n[nH]2)c2cccn2n1 [BMS-754807, (2S)-1-(4-((5-cyclopropyl-1H-pyrazol-3-yl)amino)pyrrolo[2,1-f][1,2,4]triazin-2-yl)-N-(6-fluoro-3-pyridinyl)-2-methyl-2-pyrrolidinecarboxamide]
IC50 ([1]; Homo sapiens, NCI-H716, 72 h): 217 nM | Sensitivity Classes ([1]; NCI-H716): R (“R” refers Resistant) | Sensitivity to BMS-754807 ([1]; NCI-H716, preliminary panel of 45 CRC cell lines): Intermediate (remaining 30 cell lines classified as Intermediate or resistant) | IC50 ([2]; Homo sapiens, 72 h): 35 nM | Sensitivity Classes ([2]; SNU-61): S (“S” refers Sensitive) | IC50 ([3]; Homo sapiens, 72 h): 727 nM | Sensitivity Classes ([3]; RKO-RM13): R (“R” refers Resistant) | Sensitivity to BMS-754807 ([3]; RKO-RM13, preliminary panel of 45 CRC cell lines): Resistant (resistant cell lines had IC50 values of >50 nmol/L) | Sensitivity Classes ([4]; CaR-1): R (“R” refers Resistant) | IC50 ([4]; Homo sapiens, CaR-1, 72 h): 375 nM | Sensitivity Classes ([5]; COLO320DM): S (“S” refers Sensitive) | Sensitivity to BMS-754807 ([5]; COLO320DM, preliminary panel of 45 CRC cell lines): Sensitive (a sensitive cell line was classified as one with an IC50 of ≦50 nmol/L) | IC50 ([5]; Homo sapiens, COLO 320DM, 72 h): 41 nM | pIGF-1R/pIR and pAKT levels [6]: inhibited by BMS-754807 treatment in a dose-dependent manner
